Data on one compound can be found in US20260000655A1, “PHARMACEUTICAL COMPOSITION FOR USE IN PREVENTION OR TREATMENT OF LIFESTYLE-RELATED DISEASE” (priority 2022, published 2026).

In one data set the test system is Smad 3. As to conditions: Non-Patent Literature 3; cited from earlier work.
Data set [1] concerns myotube cell model L6-GLUT4myc. Description: Cytotoxicity (MTT reagent). It is filed as cell-based, rat. As to conditions: HPH-15 1 μM, 10 μM or 50 μM, 24 hours. As for the experimental part:
(§1) It was examined whether using HPH-15 as a drug caused any cytotoxicity.
(§2) The myotube cell model L6-GLUT4myc, the liver cell model HepG2 cells, and the adipocyte model 3T3-L1 used in Example 1 were each seeded onto a 24-well plate (1×10^5 cells/well, […] of culture liquid) and cultured overnight. Then, a DMSO solution (1%) containing HPH-15 (final concentration: 1 μM, 10 μM or 50 μM) was added to the medium, and the cells were further cultured for 24 hours. As a control, only DMSO solution (1%) was added, and the cells were cultured for 24 hours in the same manner. Next, […] of MTT reagent (3-(4,5-dimethyl-2-thiazolyl)-2,5-diphenyl-2H-tetrazolium bromide: 1.1 mg/mL: Dojindo Laboratories) was added to each well, and the cells were further cultured for 4 hours. After collecting the precipitated crystals, the supernatant was removed and DMSO ([…]) was added to completely dissolve the crystals. Cytotoxicity was evaluated by measuring the absorbance (550 nm) of the solution and determining the number of viable cells.

Data set [2] deals with high-fat diet-induced obesity model mice. Description: Sirius Red staining and collagen amount in mouse tissue. It is filed as in vivo. To be noted: HPH-15 10 mg/kg or 100 mg/kg, metformin 300 mg/kg, orally 28 days, Western blotting. The procedure: High-fat diet-induced obesity model mice were prepared in the same manner as in Example 7. Then, HPH-15 (10 mg/kg or 100 mg/kg, […]) dissolved in olive oil or metformin (300 mg/kg, […]) was orally administered once a day for 28 days. Olive oil alone was administered as a control. After 28 days of administration of each, the liver and the epididymal fat of the high-fat diet-induced obesity model mice were stained with Sirius Red and observed using a microscope.
(§3) Further, high-fat diet-induced obesity model mice were prepared in the same manner as in Example 7. Then, HPH-15 (10 mg/kg or 100 mg/kg, […]) dissolved in olive oil or metformin (300 mg/kg, […]) was orally administered once a day for 28 days. Olive oil alone was administered as a control. After 28 days of administration of each, equal amounts (50 mg) of tissue pieces were collected from the liver and epididymal adipose tissues of the high-fat diet-induced obesity model mice, transferred to 1.5 mL Eppendorf tubes, and washed twice with PBS. After washing, the tissue pieces were transferred to BIOMASHER II, […] of RIPA buffer was added, and the tissue pieces were homogenized on ice. After homogenization, the tissue pieces were centrifuged (10,000 rpm, 4° C., 5 min) and the supernatant was obtained as a protein solution. The concentration of the proteins thus obtained was corrected based on the protein concentration measured by the BCA method using bicinchoninic acid (BCA), thereby preparing samples for Western blotting. Western blotting was quantified using ImageJ to calculate the amount of collagen.

The test system of the next data set is adipocyte model 3T3-L1. Description: Cytotoxicity (MTT reagent). It is filed as cell-based, mouse. As to conditions: HPH-15 1 μM, 10 μM or 50 μM, 24 hours. As for the experimental part: as §1, §2
Data set [3] is described as follows: Body weight during administration in mouse. It is filed as in vivo. As to conditions: HPH-15 10 mg/kg or 100 mg/kg orally once a day for 28 days; high-fat diet. As for the experimental part: Four-week-old […] mice (CLEA Japan, Inc.) were fed a high-fat diet HFD (CLEA Japan, Inc.) for two months to prepare high-fat diet-induced obesity model mice. Then, HPH-15 (10 mg/kg or 100 mg/kg, […]) dissolved in olive oil (Kenei Pharmaceutical Co., Ltd.) or metformin (300 mg/kg, […]) was orally administered once a day for 28 days. Olive oil alone was administered as a control. Body weight, random blood glucose levels, and fasting blood glucose levels were measured every 7 days using a blood glucose meter Glutest Aqua (Sanwa Kagaku Kenkyusho Co., Ltd.). Fasting blood glucose levels were measured after 12-hour fasting. Note that, during the drug administration period, the mice were fed the high-fat diet HFD. The results of random blood glucose levels (mg/dl) are shown in FIG. 7A, and the results of fasting blood glucose levels (mg/dl) are shown in FIG. 7B.

Data set [4] deals with myotube cell model L6-GLUT4myc, liver cell model HepG2 cells, adipocyte model 3T3-L1. Briefly: Production of lactic acid in cells. To be noted: HPH-15 10 μM or 50 μM vs metformin 2 mM; 24 hours. It is filed as cell-based, rat, human, mouse. As for the experimental part:
There is a concern that a therapeutic drug of diabetes may cause lactic acidosis due to the production of lactic acid, requiring caution, especially for patients with chronic renal failure or the elderly. Therefore, the production of lactic acid when HPH-15 was used was examined.
The myotube cell model L6-GLUT4myc, the liver cell model HepG2 cells, and the adipocyte model 3T3-L1 used in Example 1 were each seeded onto a 24-well plate (1×10^5 cells/well, […] of culture liquid) and cultured overnight. Then, a DMSO solution (1%) containing HPH-15 (final concentration: 10 μM or 50 μM) or metformin (final concentration: 2 mM) was added to the medium, and the cells were further cultured for 24 hours. As a control, only DMSO solution (1%) was added, and the cells were cultured for 24 hours in the same manner. Next, the amount of lactic acid accumulated in the cells was measured using the Lactate Assay Kit-WST (Dojindo Laboratories).

For the next data set, the system named is AMPK. Briefly: Activation of p-AMPK in mouse tissue (Western blotting). It is filed as in vivo. As for the experimental part:
as §3, with “High-fat” for “Further, high-fat”, “liver, subcutaneous fat,” for “liver”, “muscle” for “epididymal adipose”, “performed in the same manner as in Example 1 described above, and” for “quantified using ImageJ to calculate”, “p-AMPK/AMPK was calculated.” for “collagen.”

[5] abbreviates: HPH-15 10 or 100 mg/kg orally 28 days.

`CC(C)(C)SCCNC(=S)c1cccc(C(=S)NCCSC(C)(C)C)n1` [HPH-15]: in the data set with Smad 3, the “phosphorylation of Smad 3 induced by TGF-β” value was “reduces the phosphorylation of Smad 3 induced by TGF-β”. Moreover, the “cytotoxicity (number of viable cells)” value in data set [1] is “no cytotoxicity was confirmed”. Besides, in data set [2], the “amount of collagen in the epididymal adipose tissue” value was “strongly reduced” and the “amount of collagen in the liver tissue” value is listed as “strongly reduced”. Also, in the data set on adipocyte model 3T3-L1, the “cytotoxicity (number of viable cells)” value is “no cytotoxicity was confirmed”. In addition, the “changes in body weight during the test period” value in data set [3] is “no significant differences were observed”. For the same compound, in data set [4], the “production of lactic acid” value is “equal to or less than that by metformin”. In the data set with AMPK (setting [5]), the “p-AMPK/AMPK in the liver” value is “increased”, the “p-AMPK/AMPK in the muscle” value was “increased” and the “p-AMPK/AMPK in the subcutaneous fat” value is given as “increased”. Further, the “AMPK activation in the subcutaneous fat as compared to metformin” value in the data set with AMPK (HPH-15 10 or 100 mg/kg vs metformin 300 mg/kg, orally 28 days) is listed as “twice or more as compared to metformin”.
